Test results published in ChEMBL document CHEMBL2034919 (Eur J Med Chem, 2012).

How the values were obtained:
D(4) dopamine receptor = biological target: T1, D(4) dopamine receptor (Rattus norvegicus, UniProt P30729)
T1 sequence (P30729 whole entry): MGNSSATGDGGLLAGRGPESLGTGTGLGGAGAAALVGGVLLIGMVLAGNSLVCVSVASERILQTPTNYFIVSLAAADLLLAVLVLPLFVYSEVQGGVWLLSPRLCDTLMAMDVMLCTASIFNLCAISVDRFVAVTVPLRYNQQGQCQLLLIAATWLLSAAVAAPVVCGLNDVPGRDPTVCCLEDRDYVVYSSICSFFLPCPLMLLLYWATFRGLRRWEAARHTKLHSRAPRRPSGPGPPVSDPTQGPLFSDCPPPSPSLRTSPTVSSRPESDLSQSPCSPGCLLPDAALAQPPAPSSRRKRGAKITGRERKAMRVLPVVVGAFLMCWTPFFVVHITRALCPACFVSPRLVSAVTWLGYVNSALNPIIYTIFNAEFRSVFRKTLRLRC

[1] = biological target: 5-hydroxytryptamine receptor 2A (Homo sapiens, UniProt P28223)
5-hydroxytryptamine receptor 2A, sequence (P28223 whole entry): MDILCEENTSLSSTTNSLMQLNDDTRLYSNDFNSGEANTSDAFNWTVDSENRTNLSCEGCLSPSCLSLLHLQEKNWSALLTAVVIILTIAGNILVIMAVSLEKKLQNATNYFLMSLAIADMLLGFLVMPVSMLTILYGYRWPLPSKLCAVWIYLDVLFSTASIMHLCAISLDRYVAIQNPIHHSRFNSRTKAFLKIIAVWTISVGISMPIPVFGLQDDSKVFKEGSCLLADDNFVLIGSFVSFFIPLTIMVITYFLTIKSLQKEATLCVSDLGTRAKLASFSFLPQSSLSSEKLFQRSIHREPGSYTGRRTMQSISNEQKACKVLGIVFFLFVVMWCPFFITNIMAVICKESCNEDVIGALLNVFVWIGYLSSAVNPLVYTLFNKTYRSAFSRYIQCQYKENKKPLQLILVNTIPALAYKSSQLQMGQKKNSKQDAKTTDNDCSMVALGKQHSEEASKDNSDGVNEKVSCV

[2] = biological target: 5-hydroxytryptamine receptor 7 (Homo sapiens, UniProt P34969)
5-hydroxytryptamine receptor 7, sequence (P34969 whole entry): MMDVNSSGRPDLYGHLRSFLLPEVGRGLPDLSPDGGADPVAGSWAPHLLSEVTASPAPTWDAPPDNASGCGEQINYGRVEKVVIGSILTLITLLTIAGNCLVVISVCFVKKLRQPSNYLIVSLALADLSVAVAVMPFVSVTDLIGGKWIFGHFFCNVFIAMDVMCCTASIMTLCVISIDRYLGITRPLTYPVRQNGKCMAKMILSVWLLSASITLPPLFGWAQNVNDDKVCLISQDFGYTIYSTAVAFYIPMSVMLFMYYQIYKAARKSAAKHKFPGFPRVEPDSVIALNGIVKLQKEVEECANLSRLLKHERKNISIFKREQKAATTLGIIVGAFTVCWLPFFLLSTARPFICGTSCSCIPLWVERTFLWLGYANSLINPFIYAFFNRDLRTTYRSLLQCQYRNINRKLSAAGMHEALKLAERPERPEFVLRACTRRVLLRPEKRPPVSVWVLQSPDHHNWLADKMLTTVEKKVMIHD

D(2) dopamine receptor = D(2) dopamine receptor (Homo sapiens, UniProt P14416)
D(2) dopamine receptor, sequence (P14416 whole entry): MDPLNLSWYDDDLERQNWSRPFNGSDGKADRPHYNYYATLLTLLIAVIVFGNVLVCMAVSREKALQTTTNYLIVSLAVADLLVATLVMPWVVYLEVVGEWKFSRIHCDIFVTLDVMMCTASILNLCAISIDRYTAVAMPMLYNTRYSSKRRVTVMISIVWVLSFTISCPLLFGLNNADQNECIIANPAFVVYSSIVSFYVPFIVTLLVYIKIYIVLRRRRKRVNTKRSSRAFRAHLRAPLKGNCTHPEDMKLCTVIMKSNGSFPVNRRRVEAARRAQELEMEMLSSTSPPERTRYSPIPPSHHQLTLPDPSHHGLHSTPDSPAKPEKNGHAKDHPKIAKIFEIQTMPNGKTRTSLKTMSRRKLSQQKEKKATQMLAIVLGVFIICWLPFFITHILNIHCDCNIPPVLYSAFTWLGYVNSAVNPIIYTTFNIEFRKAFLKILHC

[3] = biological target: T2, 5-hydroxytryptamine receptor 2C (Homo sapiens, UniProt P28335)
T2 sequence (P28335 whole entry): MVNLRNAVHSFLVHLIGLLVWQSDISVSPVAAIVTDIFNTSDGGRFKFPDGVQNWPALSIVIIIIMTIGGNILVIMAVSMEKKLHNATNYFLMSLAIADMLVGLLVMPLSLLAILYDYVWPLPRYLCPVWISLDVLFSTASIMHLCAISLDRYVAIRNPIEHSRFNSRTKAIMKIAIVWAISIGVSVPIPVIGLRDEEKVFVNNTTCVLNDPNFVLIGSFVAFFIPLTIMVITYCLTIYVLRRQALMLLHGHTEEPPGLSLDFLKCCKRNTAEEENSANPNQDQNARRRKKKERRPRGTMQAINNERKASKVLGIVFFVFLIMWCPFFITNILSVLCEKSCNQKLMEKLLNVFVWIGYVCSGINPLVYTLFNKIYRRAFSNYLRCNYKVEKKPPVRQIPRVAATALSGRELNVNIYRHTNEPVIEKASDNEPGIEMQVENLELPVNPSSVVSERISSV

[4] = biological target: T3, 5-hydroxytryptamine receptor 1A (Homo sapiens, UniProt P08908)
T3 sequence (P08908 whole entry): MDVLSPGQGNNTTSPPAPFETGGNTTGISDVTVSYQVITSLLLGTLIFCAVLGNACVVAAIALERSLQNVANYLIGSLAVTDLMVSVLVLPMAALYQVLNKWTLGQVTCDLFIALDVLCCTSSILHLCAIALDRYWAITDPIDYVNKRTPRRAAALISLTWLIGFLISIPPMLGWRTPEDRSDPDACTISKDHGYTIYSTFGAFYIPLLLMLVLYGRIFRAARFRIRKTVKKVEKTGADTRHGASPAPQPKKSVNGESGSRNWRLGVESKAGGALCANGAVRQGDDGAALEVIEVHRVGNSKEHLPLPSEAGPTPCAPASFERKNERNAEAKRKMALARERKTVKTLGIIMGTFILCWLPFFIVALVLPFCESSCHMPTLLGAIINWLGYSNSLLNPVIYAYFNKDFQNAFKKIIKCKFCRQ

[5] = biological target: Sodium-dependent serotonin transporter (Homo sapiens, UniProt P31645)
Sodium-dependent serotonin transporter, sequence (P31645 whole entry): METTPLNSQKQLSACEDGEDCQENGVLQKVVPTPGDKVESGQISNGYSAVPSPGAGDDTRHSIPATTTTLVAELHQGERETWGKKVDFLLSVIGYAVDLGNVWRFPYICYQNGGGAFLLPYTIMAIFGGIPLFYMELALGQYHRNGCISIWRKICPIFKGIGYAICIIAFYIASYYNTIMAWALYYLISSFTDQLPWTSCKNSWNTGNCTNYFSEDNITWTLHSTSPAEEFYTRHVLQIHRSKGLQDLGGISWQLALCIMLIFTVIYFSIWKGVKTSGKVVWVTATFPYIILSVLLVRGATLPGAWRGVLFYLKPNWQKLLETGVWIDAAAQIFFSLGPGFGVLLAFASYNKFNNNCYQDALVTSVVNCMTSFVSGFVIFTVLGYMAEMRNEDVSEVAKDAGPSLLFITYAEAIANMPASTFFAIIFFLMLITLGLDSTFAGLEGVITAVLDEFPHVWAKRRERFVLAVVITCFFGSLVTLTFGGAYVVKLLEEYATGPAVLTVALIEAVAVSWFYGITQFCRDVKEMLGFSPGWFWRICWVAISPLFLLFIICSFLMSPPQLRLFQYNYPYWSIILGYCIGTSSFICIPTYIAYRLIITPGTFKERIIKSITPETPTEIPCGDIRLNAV

[6] = biological target: Sodium-dependent noradrenaline transporter (Homo sapiens, UniProt P23975)
Sodium-dependent noradrenaline transporter, sequence (P23975 whole entry): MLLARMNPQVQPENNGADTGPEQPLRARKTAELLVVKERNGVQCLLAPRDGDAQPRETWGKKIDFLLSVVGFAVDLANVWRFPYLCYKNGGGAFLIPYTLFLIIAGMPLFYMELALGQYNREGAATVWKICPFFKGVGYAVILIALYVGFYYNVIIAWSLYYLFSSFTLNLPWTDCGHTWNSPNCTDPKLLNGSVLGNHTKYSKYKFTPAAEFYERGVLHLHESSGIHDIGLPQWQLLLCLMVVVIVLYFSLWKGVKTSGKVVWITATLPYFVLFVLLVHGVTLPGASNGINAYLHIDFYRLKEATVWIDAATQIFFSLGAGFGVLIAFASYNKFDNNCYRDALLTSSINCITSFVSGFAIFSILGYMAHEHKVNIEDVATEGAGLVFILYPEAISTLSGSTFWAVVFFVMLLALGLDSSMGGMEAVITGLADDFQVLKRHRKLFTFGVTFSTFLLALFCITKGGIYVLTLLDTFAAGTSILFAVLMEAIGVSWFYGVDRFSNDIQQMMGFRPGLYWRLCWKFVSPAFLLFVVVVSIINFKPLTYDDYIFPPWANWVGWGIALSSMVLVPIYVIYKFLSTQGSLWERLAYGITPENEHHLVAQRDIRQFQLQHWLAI

Histamine H1 receptor = Histamine H1 receptor (Homo sapiens, UniProt P35367)
Histamine H1 receptor, sequence (P35367 whole entry): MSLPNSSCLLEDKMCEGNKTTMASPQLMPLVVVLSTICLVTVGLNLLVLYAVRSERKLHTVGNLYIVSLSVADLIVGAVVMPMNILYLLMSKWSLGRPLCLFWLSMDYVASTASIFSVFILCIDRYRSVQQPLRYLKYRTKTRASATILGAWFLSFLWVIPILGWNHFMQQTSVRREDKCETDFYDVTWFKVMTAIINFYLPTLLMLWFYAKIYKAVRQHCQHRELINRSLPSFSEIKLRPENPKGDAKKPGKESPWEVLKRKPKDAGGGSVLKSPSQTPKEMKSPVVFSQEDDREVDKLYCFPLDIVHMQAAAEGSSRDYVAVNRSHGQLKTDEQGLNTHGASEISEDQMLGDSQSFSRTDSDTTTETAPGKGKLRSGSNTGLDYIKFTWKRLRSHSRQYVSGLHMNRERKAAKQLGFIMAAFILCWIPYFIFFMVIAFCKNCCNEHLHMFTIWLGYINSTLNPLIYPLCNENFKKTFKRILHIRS

[7] = biological target: T2, 5-hydroxytryptamine receptor 2C; remark: listed apart in the source
[8] = biological target: Sodium-dependent dopamine transporter (Homo sapiens, UniProt Q01959)
Sodium-dependent dopamine transporter, sequence (Q01959 whole entry): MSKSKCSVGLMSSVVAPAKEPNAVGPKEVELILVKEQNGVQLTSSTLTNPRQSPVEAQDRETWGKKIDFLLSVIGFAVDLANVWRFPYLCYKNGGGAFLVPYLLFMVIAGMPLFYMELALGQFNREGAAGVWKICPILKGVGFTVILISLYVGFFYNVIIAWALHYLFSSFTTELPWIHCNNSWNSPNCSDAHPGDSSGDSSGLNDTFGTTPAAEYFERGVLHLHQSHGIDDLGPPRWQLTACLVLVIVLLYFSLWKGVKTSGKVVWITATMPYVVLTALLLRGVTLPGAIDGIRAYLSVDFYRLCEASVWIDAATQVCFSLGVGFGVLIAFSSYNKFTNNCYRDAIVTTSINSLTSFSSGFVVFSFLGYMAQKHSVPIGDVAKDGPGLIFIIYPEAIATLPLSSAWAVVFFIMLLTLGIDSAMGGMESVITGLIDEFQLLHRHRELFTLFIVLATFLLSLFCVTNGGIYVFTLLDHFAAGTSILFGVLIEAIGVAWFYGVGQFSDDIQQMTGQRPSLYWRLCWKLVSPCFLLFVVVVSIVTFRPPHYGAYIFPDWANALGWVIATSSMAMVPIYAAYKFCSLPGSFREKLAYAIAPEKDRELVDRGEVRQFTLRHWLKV

Ki [3] [µM]	Ki (D(4) dopamine receptor)	Compound	Ki (D(4) dopamine receptor; read-out: Ki) [µM]	Ki [1] [µM]	Ki ([2]; read-out: Ki) [µM]	Ki (D(2) dopamine receptor) [µM]	Ki [4] [µM]	Ki ([5]; read-out: Ki) [µM]	Ki [6] [µM]	Ki (Histamine H1 receptor) [µM]	Ki [7]	Ki [5]	Ki [2]	Ki [8] [µM]
4.65		Clc1ccc(N2CCN(CCCc3nc4ccccc4s3)CC2)cc1	0.031	0.036	0.79	2.32	0.312	1.18						
3.74		O=C(CCCCN1CCC(c2ccccc2)CC1)c1nc2ccccc2s1	0.18	0.0034	0.107	0.642	0.0073	0.064	0.049	0.052				
		O=C(CCCCN1CCN(c2ncccn2)CC1)c1nc2ccccc2s1					0.0036				Not Active	Not Active		
		O=C(CCCN1CCCN(c2ccc(Cl)cc2)CC1)c1nc2ccccc2s1			0.356			0.0053						
		O=C(CCCCN1Cc2ccccc2C1)c1nc2ccccc2s1	0.512	> 10							Not Active			
		O=C(CCCCN1CCC2(CC1)C(=O)NCN2c1ccccc1)c1nc2ccccc2s1	0.162	3.72	0.518		0.103	0.284			Not Active			
		Clc1ccc(N2CCCN(CCCCc3nc4ccccc4s3)CC2)cc1			0.413			0.065						
	Not Active	O=C(CCCN1CCN(c2ccccc2)CC1)c1nc2ccccc2s1		> 10		> 10	0.35	> 10			Not Active		Not Active	
		c1ccc2c(c1)CN(CCCCc1nc3ccccc3s1)C2	0.141	> 10	0.211	0.99	0.111	0.186			Not Active			
		N#Cc1ccc2[nH]cc(CCCCN3CCN(c4ccc5oc(C(N)=O)cc5c4)CC3)c2c1 [VILAZODONE]				0.666								
		O=C(CCCN1CCN(c2ncccn2)CC1)c1nc2ccccc2s1	0.0515				0.063				Not Active	Not Active		
6.21		Clc1ccc(N2CCN(CCCCc3nc4ccccc4s3)CC2)cc1	0.004	0.132	0.329	0.219	0.0905	0.166						
		O=C(CCCCN1CCN(c2ccc(Cl)cc2)CC1)c1nc2ccccc2s1	0.1	0.523	2.92	4.79	0.0283	0.081	> 10	0.046	Not Active			4.74
		O=C(CCCN1CCN(c2ccc(Cl)cc2)CC1)c1nc2ccccc2s1	0.342	2		8.36	> 10	0.491			Not Active		Not Active	
		O=C(CCCN1CCC(c2ccccc2)CC1)c1nc2ccccc2s1	0.0444			0.53	0.085				Not Active			
		O=C(CCCCN1CCCN(c2ccc(Cl)cc2)CC1)c1nc2ccccc2s1			2.81			0.065						
		Clc1ccc(N2CCCN(CCCc3nc4ccccc4s3)CC2)cc1			2.06			0.034			Not Active			
		O=C(CCCCN1CCN(c2ccccc2)CC1)c1nc2ccccc2s1	0.105				0.0036							
		OC1(c2ccc(Cl)cc2)CCN(CCCCc2nc3ccccc3s2)CC1	0.14	4.26	0.983	0.201	0.771	0.922			Not Active			
		O=C(CCCCN1CCC(n2c(=O)[nH]c3cc(Cl)ccc32)CC1)c1nc2ccccc2s1	1.71	1.56		0.217	0.252	0.565			Not Active			

Compound	Ki [3] [µM]	Ki (D(4) dopamine receptor)	Ki (D(4) dopamine receptor; read-out: Ki) [µM]	Ki [1] [µM]	Ki ([2]; read-out: Ki) [µM]	Ki (D(2) dopamine receptor) [µM]	Ki [4] [µM]	Ki ([5]; read-out: Ki) [µM]	Ki [6] [µM]	Ki (Histamine H1 receptor) [µM]	Ki [7]	Ki [5]	Ki [2]	Ki [8] [µM]
c1ccc2c(c1)CCN(CCCCc1nc3ccccc3s1)C2	6.27		0.0655	3.81	0.0356	0.0308	0.0051	1.32						
c1cnc(N2CCN(CCCCc3nc4ccccc4s3)CC2)nc1	> 10		0.0008	0.224	0.229							Not Active		
